Reference: ChEMBL document CHEMBL1154406, “Can the Etest correctly determine the MICs of beta-lactam and cephalosporin antibiotics for beta-lactamase-negative ampicillin-resistant Haemophilus influenzae?” (2007)
Values after ≈ are worked out from the molar mass of the structure shown.

Assays:
Format in all cases: functional
Haemophilus influenzae [1] = test: Antimicrobial activity against Haemophilus influenzae expressing mutant ftsI gene
Haemophilus influenzae [2] = test: Antimicrobial activity against beta-lactamase positive ampicillin-resistant Haemophilus influenzae by E-test
Haemophilus influenzae [3] = test: Antimicrobial activity against beta-lactamase positive amoxicillin/clavulanate-resistant Haemophilus influenzae by E-test
Haemophilus influenzae [4] = test: Antimicrobial activity against beta-lactamase negative ampicillin-susceptible Haemophilus influenzae by E-test
Haemophilus influenzae [5] = test: Antimicrobial activity against beta-lactamase positive ampicillin-resistant Haemophilus influenzae by broth microdilution method
Haemophilus influenzae [6] = test: Antimicrobial activity against beta-lactamase negative ampicillin-resistant Haemophilus influenzae by E-test
Haemophilus influenzae [7] = test: Antimicrobial activity against beta-lactamase negative ampicillin-resistant Haemophilus influenzae by broth microdilution method
Haemophilus influenzae [8] = test: Antimicrobial activity against beta-lactamase negative ampicillin-susceptible Haemophilus influenzae by broth microdilution method
Haemophilus influenzae [9] = test: Antimicrobial activity against beta-lactamase positive amoxicillin/clavulanate-resistant Haemophilus influenzae by broth microdilution method

Row | SMILES | MIC (Haemophilus influenzae [1]) [µg/mL] | MIC (Haemophilus influenzae [2]) [µg/mL] | MIC (Haemophilus influenzae [3]) [µg/mL] | MIC (Haemophilus influenzae [4]) [µg/mL] | MIC (Haemophilus influenzae [5]) [µg/mL] | MIC (Haemophilus influenzae [6]) [µg/mL] | MIC (Haemophilus influenzae [7]) [µg/mL] | MIC (Haemophilus influenzae [8]) [µg/mL] | MIC (Haemophilus influenzae [9]) [µg/mL]
1 | C=CC1=C(C(=O)O)N2C(=O)[C@@H](NC(=O)/C(=N\OCC(=O)O)c3csc(N)n3)[C@H]2SC1 [CEFIXIME] | 0.03 (≈ 0.0662 µM) |  |  |  |  |  |  |  | 
2 | CC1(C)S[C@@H]2[C@H](NC(=O)[C@H](N)c3ccccc3)C(=O)N2[C@H]1C(=O)O [AMPICILLIN] |  | 4 (≈ 11.4 µM) | 256 | 0.25 (≈ 0.715 µM) | 32 (≈ 91.6 µM) | 1 (≈ 2.86 µM) | 1 (≈ 2.86 µM) | 0.25 (≈ 0.715 µM) | 256
3 | C[C@H]1COc2c(N3CCN(C)CC3)c(F)cc3c(=O)c(C(=O)O)cn1c23.C[C@H]1COc2c(N3CCN(C)CC3)c(F)cc3c(=O)c(C(=O)O)cn1c23.O [LEVOFLOXACIN] |  |  |  | < 0.06 |  | < 0.016 | 1 | < 0.06 | 
4 | N[C@@H](C(=O)N[C@@H]1C(=O)N2C(C(=O)O)=C(Cl)CS[C@H]12)c1ccccc1 [CEFACLOR ANHYDROUS] | 4 (≈ 10.9 µM) |  |  |  |  |  |  |  | 
5 | CO/N=C(\C(=O)N[C@@H]1C(=O)N2C(C(=O)O)=C(COC(N)=O)CS[C@H]12)c1ccco1 [CEFUROXIME] | 0.5 (≈ 1.18 µM) |  |  |  |  |  |  |  | 
6 | CO/N=C(\C(=O)N[C@@H]1C(=O)N2C(C(=O)O)=C(CSc3nc(=O)c(O)nn3C)CS[C@H]12)c1csc(N)n1 [CEFTRIAXONE] |  | 0.008 (≈ 0.0144 µM) | 0.25 | 0.008 (≈ 0.0144 µM) |  | 0.012 (≈ 0.0216 µM) | 0.06 (≈ 0.108 µM) | < 0.06 | 
7 | C[C@@H](O)[C@H]1C(=O)N2C(C(=O)O)=C(S[C@@H]3CN[C@H](C(=O)N(C)C)C3)[C@H](C)[C@H]12 [MEROPENEM] |  | 0.064 (≈ 0.167 µM) | 0.125 | 0.064 (≈ 0.167 µM) |  | 0.125 (≈ 0.326 µM) |  | < 0.06 | 
